Assay results: publication PMC6270420, “Antibacterial Activity of Salicylanilide 4-(Trifluoromethyl)benzoates” (Molecules, 2013)
Read-outs that look alike come from different tables or passages of the source.

How the values were obtained:
Mtb. 7357/1988 = experiment: microbe, parasite or virus in culture; assay type: cell-based; conditions: Mycobacterium tuberculosis, read-out: MIC Mtb. 7357/1988
Mtb. Praha 131 (XDR-TB) = experiment: microbe, parasite or virus in culture; assay type: cell-based; conditions: Mycobacterium tuberculosis, read-out: MIC Mtb. Praha 131 (XDR-TB)
[1] = test system: Gram-positive cocci including MRSA; experiment: Antibacterial microdilution, summary for Gram-positive cocci; assay type: cell-based; conditions: Staphylococcus aureus, read-out: MICs against Gram-positive cocci
Experimental: (§1) The in vitro antibacterial activity was assayed against eight Gram-positive and Gram-negative strains: Staphylococcus aureus CCM 4516/08, methicillin-resistant Staphylococcus aureus H 5996/08 (MRSA), Staphylococcus epidermidis H 6966/08, Enterococcus sp. J 14365/08; Escherichia coli CCM 4517, Klebsiella pneumoniae D 11750/08, ESBL-positive Klebsiella pneumoniae J 14368/08, and Pseudomonas aeruginosa CCM 1961.
(§2) The microdilution broth method modified according to standard M07-A07 in Mueller-Hinton broth (HiMedia Laboratories, Mumbai, India) adjusted to pH 7.4 (±0.2) was used. The tested compounds were dissolved in DMSO to the final concentrations ranging from […]. Benzylpenicillin (penicillin G) was used as a comparative drug. Bacterial inoculum in sterile water was prepared to match 0.5 McFarland scale ([…]). The minimum inhibitory concentrations were assayed as 90% (IC90) or higher reduction of growth when compared to the control. The determination of results was performed visually and spectrophotometrically (at 540 nm). The values of MICs were determined after 24 and 48 h of incubation in the darkness at 35 °C (±0.1) in a humid atmosphere.

Mtb. 53/2009 = experiment: microbe, parasite or virus in culture; assay type: cell-based; conditions: Mycobacterium tuberculosis, read-out: MIC Mtb. 53/2009
[2] = biological target: T1, mycobacterial isocitrate lyase (ICL1, Rv0467) (Mycobacterium tuberculosis, UniProt P9WKK7); experiment: Isocitrate lyase inhibition assay (ICL1); assay type: biochemical, Mycobacterium tuberculosis H37Rv; conditions: 10 μmol/L; read-out: % ICL inhibition at 10 μmol/L (± standard deviation)
T1 construct: His tag (from pET-28b(+)); made in house; host or cells: E. coli BL21(DE3), pET-28b(+) plasmid
T1 sequence (P9WKK7 1-428): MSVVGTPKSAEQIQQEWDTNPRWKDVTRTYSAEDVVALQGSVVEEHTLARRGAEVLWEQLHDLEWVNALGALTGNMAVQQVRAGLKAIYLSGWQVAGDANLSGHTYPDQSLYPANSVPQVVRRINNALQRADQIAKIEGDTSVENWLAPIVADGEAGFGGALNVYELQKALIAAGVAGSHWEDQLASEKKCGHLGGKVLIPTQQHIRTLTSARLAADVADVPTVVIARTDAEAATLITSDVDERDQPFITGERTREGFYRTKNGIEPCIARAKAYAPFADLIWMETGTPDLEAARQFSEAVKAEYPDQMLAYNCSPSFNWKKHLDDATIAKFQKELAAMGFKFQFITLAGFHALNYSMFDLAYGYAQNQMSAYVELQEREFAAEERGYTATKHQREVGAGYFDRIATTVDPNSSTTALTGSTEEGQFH

[3] = test system: Mycobacterium kansasii 235/80; experiment: Antimycobacterial MIC micromethod; assay type: cell-based; conditions: read-out: MIC M. kansasii 235/80
[4] = test system: Escherichia coli CCM 4517; experiment: Antibacterial microdilution broth method; assay type: cell-based; conditions: read-out: MIC/IC90 E. coli CCM 4517
Experimental: as §1, §2

[5] = test system: Staphylococcus aureus CCM 4516/08; experiment: Antibacterial microdilution broth method; assay type: cell-based; conditions: read-out: MIC/IC90 S. aureus CCM 4516/08
Experimental: as §1, §2

[6] = test system: Enterococcus sp. J 14365/08; experiment: Antibacterial microdilution broth method; assay type: cell-based; conditions: read-out: MIC/IC90 Enterococcus sp. J 14365/08
Experimental: as §1, §2

[7] = test system: methicillin-resistant Staphylococcus aureus H 5996/08 (MRSA); experiment: Antibacterial microdilution broth method; assay type: cell-based; conditions: read-out: MIC/IC90 MRSA H 5996/08
Experimental: as §1, §2

[8] = test system: Staphylococcus epidermidis H 6966/08; experiment: Antibacterial microdilution broth method; assay type: cell-based; conditions: read-out: MIC/IC90 S. epidermidis H 6966/08
Experimental: as §1, §2

[9] = test system: Mycobacterium avium 330/88; experiment: Antimycobacterial MIC micromethod; assay type: cell-based
[10] = test system: Mycobacterium tuberculosis 331/88 (H37Rv); experiment: Antimycobacterial MIC micromethod, Šula's medium; assay type: cell-based; conditions: read-out: MIC Mtb. 331/88
[11] = test system: M. kansasii 6509/96 (clinically isolated strain); experiment: Antimycobacterial MIC micromethod; assay type: cell-based; conditions: Mycobacterium kansasii, read-out: MIC M. kansasii 6509/96
Mtb. 234/2005 = experiment: microbe, parasite or virus in culture; assay type: cell-based; conditions: Mycobacterium tuberculosis, read-out: MIC Mtb. 234/2005
Mtb. 9449/2006 = experiment: microbe, parasite or virus in culture; assay type: cell-based; conditions: Mycobacterium tuberculosis, read-out: MIC Mtb. 9449/2006
Mtb. Praha 1 = experiment: microbe, parasite or virus in culture; assay type: cell-based; conditions: Mycobacterium tuberculosis, read-out: MIC Mtb. Praha 1
HepG2 cells = experiment: Cytotoxicity evaluation (CellTiter 96 MTS); assay type: cell-based, human; conditions: Homo sapiens, HepG2, 24 h, read-out: IC50 HepG2
Experimental: Seven esters and their parent salicylanilides with the most robust antimicrobial activity were tested for cytotoxicity in the human hepatocellular liver carcinoma cell line HepG2 (passages 21–24; ECACC, Salisbury, UK) using a standard colorimetric method measuring a tetrazolium salt reduction (CellTiter(R) 96 AQueous One Solution Assay, Promega G3580, Madison, WI, USA).
The cells were routinely cultured in Minimum Essentials Eagle Medium (Sigma-Aldrich, Darmstadt, Germany) supplemented with 10% foetal bovine serum (PAA; Biotech, Prague, Czech Republic), 1% of L-glutamine solution (Sigma-Aldrich), and non-essential amino acids solution (Sigma-Aldrich) in a humidified atmosphere containing 5% CO2 at 37 °C. For subculturing, the cells were harvested after trypsin/EDTA (Sigma-Aldrich) treatment at 37 °C. The cells treated with the tested substances were used as experimental groups. Untreated HepG2 cells were used as control groups.
The cells were seeded in density 1 × 10^4 cells per well in a 96-well plate with microscopic control. Next day, the cells were treated with each of the tested substances. […] The most of the tested compounds were prepared in incubation concentrations of 0.01–20 µM in triplicates. 4-(Trifluoromethyl)benzoic acid was applied in the concentrations of 10–4,000 µM in triplicates. The following types of controls were included: determination of 100% viability and 0% viability (the cells treated by 10% DMSO), no cell control and vehiculum controls. These checking samples were prepared in triplicates.
The treated cells were incubated together with controls at 37 °C for 24 h in 5% CO2 atmosphere. After this time reagent from the kit CellTiter 96 AQueous One Solution Cell Proliferation Assay was added. The CellTiter 96 assay is based on the reduction of tetrazolium salt MTS [3-(4,5-dimethylthiazol-2-yl)-5-(3-carboxymethoxyphenyl)-2-(4-sulfophenyl)-2H-tetrazolium] to water-soluble formazan dye by metabolically active cells. The reduction of the reagent is attributed to availability of NADH or NADPH. The decline in levels of these metabolically important compounds in the cell causes that the production of formazan is reduced. The tested plate was incubated for 2 h at 37 °C and 5% CO2 and after this time, the absorbance was recorded at 490 nm using a 96-well plate reader (TECAN, Infinite M200, Grödig, Austria).
The results were expressed as inhibitory concentration which is necessary to inhibit cell viability to 50% from the maximal (control) viability (IC50). A standard toxicological parameter IC50 was calculated in each of the tested substances using GraphPad Prism software (version 5.02; GraphPad Software Inc., San Diego, CA, USA).

O=C(Oc1cc(Cl)ccc1C(=O)Nc1cccc(Cl)c1)c1ccc(C(F)(F)F)cc1 [1b]
8 µM: MIC (Mtb. 7357/1988; 336 h) | MIC (Mtb. 7357/1988; 504 h) | MIC (Mtb. Praha 131 (XDR-TB); 336 h) | MIC (Mtb. Praha 131 (XDR-TB); 504 h) | MIC (Mtb. 53/2009; 336 h) | MIC (Mtb. 53/2009; 504 h) | MIC ([9]; 330/88, 336 h, 14 d) | MIC ([9]; 330/88, 504 h, 21 d) | MIC ([11]; 336 h, 14 d) | MIC ([11]; 504 h, 21 d) | MIC (Mtb. 234/2005; 336 h) | MIC (Mtb. 234/2005; 504 h)
2 µM: MIC ([11]; 168 h, 7 d)
> 250 µM: MIC ([4]; CCM4517, 24 h) | MIC ([4]; CCM4517, 48 h)
7.81 µM: MIC ([6]; SP.J14365/08, 24 h)
13 ± 1.7%: inhibition at 10 µM [2]
4 µM: MIC ([3]; 235/80, 336 h, 14 d) | MIC ([3]; 235/80, 504 h, 21 d) | MIC ([10]; 336 h, 14 d) | MIC ([10]; 504 h, 21 d) | MIC (Mtb. 9449/2006; 336 h) | MIC (Mtb. 9449/2006; 504 h) | MIC (Mtb. Praha 1; 336 h) | MIC (Mtb. Praha 1; 504 h)
1 µM: MIC ([3]; 235/80, 168 h, 7 d)
15.6 µM: MIC ([6]; SP.J14365/08, 48 h)
< 1 µM: MIC [1]
0.98 µM: MIC ([5]; CCM4516, 24 h) | MIC ([7]; 24 h) | MIC ([8]; H6966/08, 24 h)
1.95 µM: MIC ([5]; CCM4516, 48 h) | MIC ([7]; 48 h) | MIC ([8]; H6966/08, 48 h)

O=C(Oc1ccc(Cl)cc1C(=O)Nc1cccc(Br)c1)c1ccc(C(F)(F)F)cc1 [1g]
1 µM: MIC (Mtb. Praha 131 (XDR-TB); 336 h) | MIC ([10]; 336 h, 14 d) | MIC ([11]; 168 h, 7 d) | MIC (Mtb. 234/2005; 336 h) | MIC (Mtb. 9449/2006; 336 h) | MIC (Mtb. Praha 1; 336 h)
2 µM: MIC (Mtb. 7357/1988; 336 h) | MIC (Mtb. 7357/1988; 504 h) | MIC (Mtb. Praha 131 (XDR-TB); 504 h) | MIC (Mtb. 53/2009; 336 h) | MIC (Mtb. 53/2009; 504 h) | MIC ([3]; 235/80, 168 h, 7 d) | MIC ([9]; 330/88, 336 h, 14 d) | MIC ([10]; 504 h, 21 d) | MIC (Mtb. 234/2005; 504 h) | MIC (Mtb. 9449/2006; 504 h) | MIC (Mtb. Praha 1; 504 h)
2630 nM: IC50 (HepG2 cells)
4 µM: MIC ([3]; 235/80, 336 h, 14 d) | MIC ([3]; 235/80, 504 h, 21 d) | MIC ([11]; 336 h, 14 d) | MIC ([11]; 504 h, 21 d)
≥ 20%: inhibition at 10 µM [2]
8 µM: MIC ([9]; 330/88, 504 h, 21 d)
